The values below come from patent publication US20070043035A1, “Novel compounds and their use in medicine: process for their preparation and pharmaceutical compositions containing them” (priority 2003, published 2007).

By melting point is commonly meant the temperature of the solid-liquid transition.

In data set [1] the test system is cholesterol fed Syrian Hamsters. Description: Body weight reducing effect in cholesterol fed hamsters. It is filed as in vivo, hamster. The following applies: dose 3 mg/kg, oral, 15 days. How it is done: Male Syrian Hamsters are procured from NIN, Hyderabad, India. Animals are housed at DRF animal house under 12 hour light and dark cycle at 25±1° C. with free access to food and water. Animals are maintained with 1% cholesterol containing standard laboratory chow (NIN) from the day of treatment.
The test compounds can be administered orally at 1 to 30 mg/kg/day dose for 15 days. Control group animals are treated with vehicle (Mill Q water, dose 10 ml/kg/day). Body weights are measured on every 3rd day.
(§1) Formulae for Calculation: 1. Percent reduction in Blood sugar triglycerides/total cholesterol will be calculated according to the formula: [formula] OC=Zero day control group value OT=Zero day treated group value TC=Test day control group value TT=Test day treated group value 2. LDL and VLDL cholesterol levels will be calculated according to the formula: [formula] [formula]

The subject of the next data set is Swiss albino mice. Description: Plasma triglyceride and total cholesterol lowering activity in Swiss albino mice. It is filed as in vivo, mouse. To be noted: dose 3 mg/kg, oral, 6 days. As for the experimental part:
Male Swiss albino mice (SAM) were obtained from NIN and housed in DRF animal house. All these animals are maintained under 12 hour light and dark cycle at 25±1° C. Animals are given standard laboratory chow (NIN, Hyderabad, India) and water, ad libitum. SAM of 20-25 g body weight range and Guinea pigs of 500-700 g body weight range are used (Oliver, P., Plancke, M. O., Marzin, D., Clavey, V., Sauzieres, J and Fruchart, J. C. Effects of fenofibrate, gemfibrozil and nicotinic acid on plasma lipoprotein levels in normal and hyperlipidemic mice. Atherosclerosis. 1988. 70: 107-114).
The test compounds can be administered orally to Swiss albino mice at 0.3 to 30 mg/kg/day dose for 6 days. Control mice are treated with vehicle (0.25% Carboxymethylcellulose; dose 10 ml/kg). The test compounds are administered orally to Guinea pigs at 0.3 to 30 mg/kg/day dose for 6 days. Control animals are treated with vehicle (0.25% Carboxymethylcellulose; dose 5 ml/kg).
The blood samples can be collected in fed state 1 hour after drug administration on 0 and 6 day of treatment. […]
(§2) Formulae for Calculation: 1. Percent reduction in Blood sugar triglycerides/total cholesterol will be calculated according to the formula: [formula] […] LDL and VLDL cholesterol levels will be calculated according to the formula: [formula] […]

Another data set deals with T1, hPPARγ1 (Homo sapiens, UniProt P37231).
T1 construct: expressed in transfected cells; host or cells: HEK-293
T1 sequence (P37231 238-503 limits assumed): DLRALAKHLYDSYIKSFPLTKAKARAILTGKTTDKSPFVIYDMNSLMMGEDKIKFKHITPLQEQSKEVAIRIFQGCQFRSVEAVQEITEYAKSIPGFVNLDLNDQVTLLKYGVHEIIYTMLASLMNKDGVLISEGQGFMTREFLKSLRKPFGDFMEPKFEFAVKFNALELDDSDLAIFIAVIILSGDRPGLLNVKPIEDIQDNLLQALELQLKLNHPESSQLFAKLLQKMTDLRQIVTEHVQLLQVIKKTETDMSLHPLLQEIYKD
Nature of the data set: Determination of hPPARγ activity (GAL4-LBD luciferase reporter in HEK-293 cells). It is filed as cell-based. To be noted: compound concentration 1 μM. How it is done: Ligand binding domain of hPPARγ1 is fused to DNA binding domain of Yeast transcription factor GAL4 in eucaryotic expression vector. Using lipofectamine (Gibco BRL, USA) as transfecting reagent HEK-293 cells are transfected with this plasmid and a reporter plasmid harboring the luciferase gene driven by a GAL4 specific promoter. Compound can be added at 1 μM. concentration after 48 hrs of transfection and incubated overnight Luciferase activity as a function of drug binding/activation capacity of PPARγ1 will be measured using Packard Luclite kit (Packard, USA) in Packard Top Count (Ivan Sadowski, Brendan Bell, Peter Broag and Melvyn Hollis. Gene. 1992. 118:137-141; Guide to Eukaryotic Transfections with Cationic Lipid Reagents. Life Technologies, GIBCO BRL, USA).

Data set [2] concerns hypercholesterolemic Sprague Dawley rats. Description: Plasma triglyceride and cholesterol lowering activity in hypercholesterolemic rat models. It is filed as in vivo. To be noted: dose 1 mg/kg, oral, 3 days. As for the experimental part: Male Sprague Dawley rats (NIN stock) were bred in DRF animal house. Animals were maintained under 12 hour light and dark cycle at 25±1° C. Rats of 180-200 gram body weight range were used for the experiment. Animals are made hypercholesterolemic by feeding 2% cholesterol and 1% sodium cholate mixed with standard laboratory chow [National Institute of Nutrition (NE), Hyderabad, India] for 6 days. Throughout the experimental period the animals were maintained on the same diet (Petit, D., Bonnefis, M. T., Rey, C and Infante, P Effects of ciprofibrate on liver lipids and lipoprotein synthesis in normo- and hyperlipidemic rats. Atherosclerosis. 1988. 74: 215-225).
The test compounds can be administered orally at a dose 0.1 to 30 mg/kg/day for 3 days. Control group was treated with vehicle alone (0.25% Carboxymethylcellulose; dose 10 ml/kg).
The blood samples can be collected in fed state 1 hour after drug administration on 0 and 3 day of compound treatment The blood can be collected from the retro-orbital sinus through heparinised capillary in EDTA containing tubes. After centrifugation, plasma sample will be separated for total cholesterol, HDL and triglyceride estimations. Measurement of plasma triglyceride, total cholesterol and HDL are were done using commercial kits (Dr. Reddy's Laboratory, Diagnostic Division, India). LDL and VLDL cholesterol can be calculated from the data obtained for total cholesterol, HDL and triglyceride. The reduction of various parameters examined are calculated according to the formula.
as §1

The next data set has as its target T2, hPPARα (Homo sapiens, UniProt Q07869).
T2 construct: expressed in transfected cells; host or cells: HEK-293
T2 sequence (Q07869 239-466 limits assumed): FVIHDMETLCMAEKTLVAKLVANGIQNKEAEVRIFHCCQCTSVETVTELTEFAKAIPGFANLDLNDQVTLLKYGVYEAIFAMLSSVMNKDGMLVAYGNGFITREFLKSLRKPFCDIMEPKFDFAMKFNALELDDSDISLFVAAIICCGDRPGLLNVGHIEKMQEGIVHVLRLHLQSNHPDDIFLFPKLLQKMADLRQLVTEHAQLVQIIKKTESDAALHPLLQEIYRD
Description: Determination of hPPARα activity (GAL4-LBD luciferase reporter in HEK-293 cells). It counts as cell-based. The following applies: compound concentration 50 μM. As for the experimental part:
Ligand binding domain of hPPARα was fused to DNA binding domain of Yeast transcription factor Gal 4 in eucaryotic expression vector. Using superfect (Qiagen, Germany) as transfecting reagent HEK-293 cells are transfected with this plasmid and a reporter plasmid harboring the luciferase gene driven by a GAL4 specific promoter. Compound can be added at different concentrations after 42 hrs of transfection and incubated overnight. Luciferase activity as a function of compound binding/activation capacity of PPARα will be measured using Packard Luclite kit (Packard, USA) in Top Count (Ivan Sadowski, Brendan Bell, Peter Broag and Melvyn Hollis. Gene. 1992. 118: 137-141; Superfect Transfection Reagent Handbook. February 1997. Qiagen, Germany).
On the technique in general: Reporter assays use an easily measured gene product as a stand-in for the process of interest.

For the next data set, the system named is C57BL/Ks-db/db mice. Nature of the data set: Efficacy in genetic models: triglyceride lowering in db/db mice. It counts as in vivo, mouse. To be noted: dose 1 mg/kg, oral gavage daily for 6 days, plasma.
Description: Mutation in colonies of laboratory animals and different sensitivities to dietary regimens has made the development of animal models with non-insulin dependent diabetes and hyperlipidemia associated with obesity and insulin resistance possible. Genetic models such as db/db and ob/ob (Diabetes, (1982) 31(1): 1-6) mice and zucker fa/fa rats have been developed by the various laboratories for understanding the pathophysiology of disease and testing the efficacy of new antidiabetic compounds (Diabetes, (1983) 32: 830-838; Annu. Rep. Sankyo Res. Lab. (1994). 46: 1-57). […]
The random blood sugar and triglyceride levels can be measured by collecting blood (100 μl) through orbital sinus, using heparinised capillary in tubes containing EDTA which was centrifuged to obtain plasma. The plasma glucose and triglyceride levels can be measured spectrometrically, by glucose oxidase and glycerol-3-PO4 oxidase/peroxidase enzyme (Dr. Reddy's Lab. Diagnostic Division Kits, Hyderabad, India) methods respectively.
The blood sugar and triglycerides lowering activities of the test compound are calculated according to the formula.
as §2

As for `CCOC(=O)C(C)(C)Oc1ccc(OC/C=C(\C)c2ccc3c(c2)Cc2ccccc2-3)cc1` [Example 7], the melting point is 155 to 158 °C.

The compound `CCOC(=O)C1(Oc2ccc(OC/C=C(\C)c3ccc(-c4ccccc4)cc3)cc2)CCCC1` [Example 23] gave a melting point of 112 to 114 °C.

In the case of `C/C(=C\COc1ccc(OC(C)(C)C(=O)O)cc1)c1ccc(-c2ccccc2)cc1` [Example 25, 2-[4-(3-Biphenyl-4-yl-but-2-enyloxy)phenoxy]-2-methyl propanoic acid], in data set [1], the “Reduction in Body weight (%)” value was found to be 22%, the “Reduction in Total Cholesterol (%)” value stood at 55% and the “Reduction in Triglyceride (%)” value was 45%.

`CC(C)C(Sc1ccc(OCCCc2ccc(OS(C)(=O)=O)cc2)cc1)C(=O)O` (centres unmarked) [Example 28] showed a melting point of 115 to 118 °C.

In turn, `CC(C)(Oc1ccc(OCCc2ccc(-c3ccccc3)cc2)cc1)C(=O)O` [Example 30] registered a melting point of 138 to 140 °C.

For `C/C(=C\COc1ccc(OC(C)(C)C(=O)O)cc1)c1ccc2c(c1)Cc1ccccc1-2` [Example 31], the melting point lay in the range of 155 to 158 °C.

`CCN1c2ccccc2Oc2ccc(/C(C)=C/COc3ccc(OC(C)(C)C(=O)O)cc3)cc21` [Example 32] registered a melting point of 114 to 116 °C.

Consider `C/C(=C\CNc1ccc(OC(C)(C)C(=O)O)cc1)c1ccc(-c2ccccc2)cc1` [Example 35], for which the melting point is 184 to 188 °C.

Compound `CCC(C)(Oc1ccc(OC/C=C(\C)c2ccc(-c3ccc(F)cc3)cc2)cc1)C(=O)O` (centres unmarked) [Example 36] came in with a melting point of 122 to 125 °C.

The compound `CCC(C)(Oc1ccc(OC/C=C(\C)c2ccc(-c3ccccc3)cc2)cc1)C(=O)O` (centres unmarked) [Example 37] returned a melting point of 114 to 117 °C. For the same compound, the “Triglyceride Lowering (%)” value in the data set on Swiss albino mice is 71%. On hPPARγ1, this compound returned a PPARγ of 2.8. In data set [2] (LDL calculated from total cholesterol, HDL and triglyceride), the “Reduction in Low Density Lipoprotien (%)” value is listed as 64%. In data set [2] (plasma), the “Increase in High Density Lipoprotien (%)” value is listed as 70%, the “Reduction in Total Cholesterol (%)” value is reported as 60% and the “Triglyceride Lowering (%)” value came to 55%. In addition, the PPARα on hPPARα came out at 12.2. For the same compound, the “Triglyceride Lowering (%)” value in the data set on C57BL/Ks-db/db mice was found to be 52%.

Compound `C/C(=C\COc1ccc(OC(C)(C)C(=O)O)cc1)c1ccc(-c2cc(Cl)cc(Cl)c2)cc1` [Example 38] displayed a melting point of 52 to 54 °C.

The compound `C/C(=C\COc1ccc(OC(C)(C)C(=O)O)cc1)c1ccc(-c2ccc(C(F)(F)F)cc2)cc1` [Example 40] registered a melting point of 150 to 154 °C. Also, at hPPARγ1, the PPARγ is recorded as 1.3. On hPPARα, this compound registered a PPARα of 12.6.

Compound `C/C(=C\COc1ccc(SC(C)(C)C(=O)O)cc1)c1ccc(-c2ccccc2)cc1` [Example 41] had a melting point of 162 to 165 °C.

For the compound `C/C(=C\COc1ccc(SC(C)(C)C(=O)O)cc1)c1ccc(-c2ccc(C(F)(F)F)cc2)cc1` [Example 42], the melting point was 142 to 146 °C.

In turn, `CC(C)(Oc1ccc(OC/C=C/c2ccc(-c3ccccc3)cc2)cc1)C(=O)O` [Example 43] yielded a melting point of 172 to 174 °C.

Consider `C/C(=C\COc1ccc(OC(C(=O)O)C(C)C)cc1)c1ccc(-c2ccccc2)cc1` (centres unmarked) [Example 44], for which the melting point fell in the range of 136 to 140 °C.

With `CC(C)(Oc1ccc(OC/C=C/c2ccc(OS(C)(=O)=O)cc2)cc1)C(=O)O` [Example 45], the melting point lay within 112 to 114 °C.

`C/C(=C\COc1ccc(OC2(C(=O)O)CCCC2)cc1)c1ccc(-c2ccccc2)cc1` [Example 47] showed a melting point of 142 to 144 °C.

Consider `CC(C)(Oc1ccc(OCCCc2ccc(OS(C)(=O)=O)cc2)cc1)C(=O)O` [Example 48], for which the melting point fell in the range of 64 to 66 °C.

For the compound `CC(CCOc1ccc(OC(C)(C)C(=O)O)cc1)c1ccc(-c2ccccc2)cc1` (centres unmarked) [Example 49], the melting point is 120 to 122 °C.
